Assay results: ChEMBL document CHEMBL1155687, “Anthoptilides A-E, new Briarane diterpenes from the Australian sea pen Anthoptilum cf. kukenthali” (J Nat Prod, 2000)

Target: T1, Adenosine receptor A1 (Rattus norvegicus, UniProt P25099)
T1 sequence (P25099 whole entry): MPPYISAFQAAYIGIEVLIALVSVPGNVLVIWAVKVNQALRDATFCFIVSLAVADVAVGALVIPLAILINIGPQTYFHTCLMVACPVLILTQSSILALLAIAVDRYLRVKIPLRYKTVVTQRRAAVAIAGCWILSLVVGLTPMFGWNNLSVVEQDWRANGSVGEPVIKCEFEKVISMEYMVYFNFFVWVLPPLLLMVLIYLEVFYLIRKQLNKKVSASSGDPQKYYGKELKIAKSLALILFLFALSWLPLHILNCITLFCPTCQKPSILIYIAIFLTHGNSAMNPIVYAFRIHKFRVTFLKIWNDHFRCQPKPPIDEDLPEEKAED
Experiment: Displacement of [3H]DPCPX from adenosine A1 receptor in rat brain membrane
Assay type: cell membranes

IC50 [µM]	Compound
500	CC(=O)O[C@H]1C(=O)C=C(C)[C@@H]2CC3=C(C)C(=O)O[C@H]3/C=C(/C)CC[C@@H](OC(=O)c3ccccc3)[C@]21C [ANTHOPTILIDE D]
490	CCC(=O)O[C@@H]1CC/C(C)=C\[C@@H]2OC(=O)C(C)=C2C[C@H]2C(C)=C[C@H](OC(C)=O)[C@H](OC(C)=O)[C@]12C [ANTHOPTILIDE E]
45	CC(=O)O[C@H]1C(=O)C=C(C)[C@@H]2CC3=C(C)C(=O)O[C@H]3/C=C(/C)CC[C@@H](OC(=O)C(C)C)[C@]21C [ANTHOPTILIDE B]
420	C/C=C(\C)C(=O)O[C@@H]1CC/C(C)=C\[C@@H]2OC(=O)C(C)=C2C[C@H]2C(C)=CC(=O)[C@H](OC(C)=O)[C@]12C [ANTHOPTILIDE A]
3.1	CCC(=O)O[C@@H]1CC/C(C)=C\[C@@H]2OC(=O)C(C)=C2C[C@H]2C(C)=CC(=O)[C@H](OC(C)=O)[C@]12C [ANTHOPTILIDE C]
